Source: patent US10131652B2, “Pyrimidinyloxy benzene derivatives as herbicides” (E. I. DU PONT DE NEMOURS AND COMPANY, priority 2014, dated 2018)

Assays:
Assay type in all cases: in vivo
rice (Oryza sativa) = assay: Test C flooded paddy test plant response; conditions: Flood, 250 g ai/ha; scale of 0 to 100 where 0 is no effect and 100 is complete control; 13 to 15 days
Method in brief: (§1)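 2-leaf plants; flood 3 cm, cpd into paddy water; greenhouse 13–15 d; visual score vs untreated, 0 = no effect, 100 = complete control; dash = no result.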

[1] = tested on: ducksalad (Heteranthera limosa); assay: Test C flooded paddy test plant response; conditions: Flood, 250 g ai/ha; scale of 0 to 100 where 0 is no effect and 100 is complete control; 13 to 15 days
Method in brief: as §1

[2] = tested on: barnyardgrass (Echinochloa crus-galli); assay: Test C flooded paddy test plant response; conditions: Flood, 250 g ai/ha; scale of 0 to 100 where 0 is no effect and 100 is complete control; 13 to 15 days
Method in brief: as §1

[3] = tested on: small-flower umbrella sedge (Cyperus difformis); assay: Test C flooded paddy test plant response; conditions: Flood, 250 g ai/ha; scale of 0 to 100 where 0 is no effect and 100 is complete control; 13 to 15 days
Method in brief: as §1

kochia (Kochia scoparia) = assay: Test B pre-/postemergence plant response
Excerpt: (§2) Seeds of plant species selected from bamyardgrass (Echinochloa crus-galli), kochia (Kochia scoparia), ragweed (common ragweed, Ambrosia elatior), Italian ryegrass (Lolium multiflorum), large (Lg) crabgrass (Digitaria sanguinalis), giant foxtail (Setaria faberii), momingglory (Ipomoea spp.), pigweed (Amaranthus retroflexus), velvetleaf (Abutilon theophrasti), wheat (Triticum aestivum), and corn (Zea mays) were planted into a blend of loam soil and sand and treated preemergence with a directed soil spray using test chemicals formulated in a non-phytotoxic solvent mixture which included a surfactant. At the same time, plants selected from these crop and weed species and also blackgrass (Alopecurus myosuroides), and galium (catchweed bedstraw, Galium aparine) were planted in pots containing the same blend of loam soil and sand and treated with postemergence applications of test chemicals formulated in the same manner. Plants ranged in height from 2 to 10 cm and were in the one- to two-leaf stage for the postemergence treatment. Treated plants and untreated controls were maintained in a greenhouse for approximately 10 days, after which time all treated plants were compared to untreated controls and visually evaluated for injury. Plant response ratings, summarized in Table B, are based on a 0 to 100 scale where 0 is no effect and 100 is complete control. A dash (-) response means no test result.

[4] = tested on: pigweed (Amaranthus retroflexus); assay: Test B pre-/postemergence plant response
Excerpt: as §2

[5] = tested on: barnyardgrass (Echinochloa crus-galli); assay: Test B pre-/postemergence plant response
Excerpt: as §2

[6] = tested on: wheat (Triticum aestivum); assay: Test B pre-/postemergence plant response; conditions: 0 to 100 scale, 0 no effect, 100 complete control
Excerpt: as §2

[7] = tested on: Italian ryegrass (Lolium multiflorum); assay: Test B pre-/postemergence plant response
Excerpt: as §2

[8] = tested on: ragweed (common ragweed, Ambrosia elatior); assay: Test B pre-/postemergence plant response
Excerpt: as §2

corn (Zea mays) = assay: Test B pre-/postemergence plant response; conditions: 0 to 100 scale, 0 no effect, 100 complete control
Excerpt: as §2

[9] = tested on: giant foxtail (Setaria faberii); assay: Test B pre-/postemergence plant response
Excerpt: as §2

[10] = tested on: galium (catchweed bedstraw, Galium aparine); assay: Test B postemergence plant response; conditions: 0 to 100 scale, 0 no effect, 100 complete control
Method in brief: (§3)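 Weeds grown in loam soil/sand pots were sprayed postemergence at 2 to 10 cm height, one- to two-leaf stage. After approximately 10 days in greenhouse, injury was rated visually against untreated controls on a 0 (no effect) to 100 (complete control) scale; dash means no test result.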

[11] = tested on: blackgrass (Alopecurus myosuroides); assay: Test B postemergence plant response; conditions: 0 to 100 scale, 0 no effect, 100 complete control
Method in brief: as §3

[12] = 31 g ai/ha, Postemergence, 0 to 100 scale, 0 no effect, 100 complete control
[13] = 31 g ai/ha, Preemergence, 0 to 100 scale where 0 is no effect and 100 is complete control
[14] = 125 g ai/ha, postemergence, 0 to 100 scale, 0 no effect, 100 complete control
[15] = Preemergence, 125 g ai/ha, 0 to 100 scale where 0 is no effect and 100 is complete control

Row | Structure (SMILES) | Rice plant response rating (rice (Oryza sativa)) | Ducksalad plant response rating [1] | Barnyardgrass plant response rating [2] | Sedge, Umbrella plant response rating [3] | Plant response rating, Kochia (kochia (Kochia scoparia); [12]) | Plant response rating, Kochia (kochia (Kochia scoparia); [13]) | Plant response rating, Kochia (kochia (Kochia scoparia); [14]) | Plant response rating, Kochia (kochia (Kochia scoparia); [15]) | Plant response rating, Pigweed [4, 12] | Plant response rating, Pigweed [4, 13] | Plant response rating, Pigweed [4, 14] | Plant response rating, Barnyardgrass [5, 12] | Plant response rating, Barnyardgrass [5, 13] | Plant response rating, Barnyardgrass [5, 14] | Plant response rating, Barnyardgrass [5, 15] | Plant response rating, Wheat ([6]; 31 g ai/ha, Postemergence) | Plant response rating, Wheat ([6]; 125 g ai/ha, postemergence) | Plant response rating, Ryegrass, Italian [7, 12] | Plant response rating, Ryegrass, Italian [7, 13] | Plant response rating, Ryegrass, Italian [7, 14] | further results
1 | CCOC(OCC)c1cc(-c2ccccc2Oc2ncc(Cl)cn2)on1 [Compound 108] | 0 | 0 | 0 | 0 | 0 | 0 | 0 | 0 | 0 | 0 | 0 | 0 | 0 | 0 | 0 | 0 | 0 | 0 | 0 | 0 | Plant response rating, Pigweed [4, 15]: 0; Plant response rating, Ryegrass, Italian [7, 15]: 0; Plant response rating, Ragweed [8, 12]: 0; Plant response rating, Ragweed [8, 13]: 0; Plant response rating, Ragweed [8, 14]: 0; Plant response rating, Ragweed [8, 15]: 0; Plant response rating, Corn (corn (Zea mays); 31 g ai/ha, Postemergence): 0; Plant response rating, Corn (corn (Zea mays); 125 g ai/ha, postemergence): 10; Plant response rating, Foxtail, Giant [9, 12]: 0; Plant response rating, Foxtail, Giant [9, 13]: 0; Plant response rating, Foxtail, Giant [9, 14]: 0; Plant response rating, Foxtail, Giant [9, 15]: 0; Plant response rating, Galium ([10]; 31 g ai/ha, Postemergence): 30; Plant response rating, Galium ([10]; 125 g ai/ha, postemergence): 50; Plant response rating, Blackgrass ([11]; 31 g ai/ha, Postemergence): 0; Plant response rating, Blackgrass ([11]; 125 g ai/ha, postemergence): 0
2 | COc1cccc(Oc2ncc(Cl)cn2)c1-c1cc(C(F)F)on1 [Compound 109] | 35 | 85 | 30 | 80 | 0 | 0 | 30 | 30 | 80 | 90 | 100 | 60 | 40 | 90 | 100 | 0 | 10 | 10 | 0 | 50 | Plant response rating, Pigweed [4, 15]: 100; Plant response rating, Ryegrass, Italian [7, 15]: 10; Plant response rating, Ragweed [8, 12]: 60; Plant response rating, Ragweed [8, 13]: 20; Plant response rating, Ragweed [8, 14]: 90; Plant response rating, Ragweed [8, 15]: 70; Plant response rating, Corn (corn (Zea mays); 31 g ai/ha, Postemergence): 10; Plant response rating, Corn (corn (Zea mays); 125 g ai/ha, postemergence): 60; Plant response rating, Foxtail, Giant [9, 12]: 60; Plant response rating, Foxtail, Giant [9, 13]: 80; Plant response rating, Foxtail, Giant [9, 14]: 90; Plant response rating, Foxtail, Giant [9, 15]: 100; Plant response rating, Galium ([10]; 31 g ai/ha, Postemergence): 50; Plant response rating, Galium ([10]; 125 g ai/ha, postemergence): 100; Plant response rating, Blackgrass ([11]; 31 g ai/ha, Postemergence): 50; Plant response rating, Blackgrass ([11]; 125 g ai/ha, postemergence): 90
3 | COc1cccc(Oc2ncc(Cl)cn2)c1-c1cc(C)no1 [Compound 110] | 0 | 30 | 0 | 60 | 10 | 0 | 50 | 0 | 10 | 10 | 30 | 0 | 0 | 50 | 40 | 0 | 0 | 0 | 0 | 0 | Plant response rating, Ragweed [8, 12]: 30; Plant response rating, Ragweed [8, 13]: 0; Plant response rating, Ragweed [8, 14]: 40; Plant response rating, Corn (corn (Zea mays); 31 g ai/ha, Postemergence): 0; Plant response rating, Corn (corn (Zea mays); 125 g ai/ha, postemergence): 10; Plant response rating, Foxtail, Giant [9, 12]: 0; Plant response rating, Foxtail, Giant [9, 13]: 0; Plant response rating, Foxtail, Giant [9, 14]: 70; Plant response rating, Foxtail, Giant [9, 15]: 70; Plant response rating, Galium ([10]; 31 g ai/ha, Postemergence): 20; Plant response rating, Galium ([10]; 125 g ai/ha, postemergence): 70; Plant response rating, Blackgrass ([11]; 31 g ai/ha, Postemergence): 0; Plant response rating, Blackgrass ([11]; 125 g ai/ha, postemergence): 40
4 | COc1cccc(Oc2ncc(F)cn2)c1-c1cc(C)no1 [Compound 111] | 0 | 0 | 0 | 0 | 20 | 0 | 30 | 10 | 0 | 10 | 20 | 0 | 0 | 10 | 20 | 0 | 0 | 0 | 0 | 0 | Plant response rating, Ragweed [8, 12]: 10; Plant response rating, Ragweed [8, 13]: 0; Plant response rating, Ragweed [8, 14]: 20; Plant response rating, Corn (corn (Zea mays); 31 g ai/ha, Postemergence): 0; Plant response rating, Corn (corn (Zea mays); 125 g ai/ha, postemergence): 10; Plant response rating, Foxtail, Giant [9, 12]: 0; Plant response rating, Foxtail, Giant [9, 13]: 0; Plant response rating, Foxtail, Giant [9, 14]: 60; Plant response rating, Foxtail, Giant [9, 15]: 50; Plant response rating, Galium ([10]; 31 g ai/ha, Postemergence): 10; Plant response rating, Galium ([10]; 125 g ai/ha, postemergence): 20; Plant response rating, Blackgrass ([11]; 31 g ai/ha, Postemergence): 0; Plant response rating, Blackgrass ([11]; 125 g ai/ha, postemergence): 40
